According to patent US6569872B1, “Use of neurokinin receptor antagonists to treat androgen-dependent diseases” (Schering Corporation, priority 2001, dated 2003):

Legend:
[1] = system: serum testosterone; assay: Reduction of LHRH-stimulated serum testosterone in mice; assay type: in vivo, male nude mice
Protocol: The effects of Compounds A, B, C, D, E and F on serum testosterone were tested in mice given intramuscular (i.m.) luteinizing hormone releasing hormone (LHRH) to drive testicular androgen biosynthesis.
Male nude mice (8 weeks old, 5 mice/group) were dosed orally with 0, 5, 15, 45, 90, 150 or 300 mg/kg of Compound A in 20% hydroxypropyl β-cyclodextran (HPβCD). After 1 hour, animals were given an i.m. injection of LHRH (250 ng/kg in 50 μl Sterile Water) into the biceps femoris muscle to drive testosterone production. After an additional hour, the animals were anesthetized with ketamine/xylazine, bled by cardiac puncture, and serum testosterone levels were determined by radioimmunoassay.
The effects of 90 mg/kg of Compounds A, B, C, D, E and F on LHRH-stimulated serum testosterone levels were compared in male nude mice.

[2] = system: DU-145 human prostate carcinoma tumors; assay: Androgen-independent tumor growth, DU-145 in nude mice; assay type: in vivo; conditions: 15, 45 or 90 mg/kg twice daily i.p., over 30 days
Protocol: (§1) Following the observation of reduction of serum testosterone in mice, the effects of Compound A on androgen-dependent tumor growth were tested. […] Shionogi mouse mammary carcinoma tumors were grown in nude mice as an androgen-dependent model, and DU-145 human prostate carcinoma tumors were grown in nude mice as an androgen-independent model.
In the DU-145 experiment, male nu/nu mice (9-10 weeks old, 10 mice/group) were inoculated with DU-145 prostate carcinoma cells and tumors were grown to approximately 65 mm^3 before initiation of Compound A administration. Mice were treated twice daily, i.p. with 20% HPβCD vehicle control, 15 mg/kg, 45 mg/kg or 90 mg/kg of Compound A. As expected, tumor growth was not inhibited over 30 days in any of the Compound A groups.

[3] = system: serum LH, T, androstenedione, and DHEA; assay: Reversibility of the effects on hormones, 7 days dosing and 14-day postdose period; assay type: in vivo, dogs
Protocol: The following investigative study was conducted to determine whether the changes observed after 1 week of Compound A administration were reversible after a 14-day postdose period. The first day of dosing was Day 1.
There were eight dogs in Group 1, who received placebo (sterile water) and twelve dogs in Group 2, who received Compound A. Dogs were scheduled to be dosed for 7 days; however, one dog died shortly after receiving the sixth dose of compound A. All eight dogs in Group 1 had hormonal evaluations on Day 7; 4 of these dogs were necropsied on Day 8. The remaining four dogs in Group 1 had hormonal evaluations on Day 21 (14 days postdose), and were necropsied on Day 22. In Group 2, eleven dogs had hormonal evaluations on Day 7, and five were necropsied on Day 8. The remaining six dogs in Group 2 had hormonal evaluations on Day 21 (14 days postdose) and were necropsied on Day 22.
There were typically one to three spikes of LH and T within the sampling period. In many dogs the LH spikes preceded the T spikes by 30 to 60 minutes. Androstenedione and DHEA concentrations tended to rise and fall with those of T, although in some dogs there were many values below the limit of quantitation.
In dogs receiving Compound A at Day 7, serum LH, T, androstenedione, and DHEA concentrations were often very low. Group mean values for LH, T, androstenedione, and DHEA were 14.7, 1.5, 0.37, and 0.88 ng/ml for dogs receiving sterile water, while dogs receiving Compound A had group mean values of 2.4, 0.05, 0.01 and 0.03 ng/ml, respectively. […] It should also be noted that on Day 7 almost all T, androstenedione, and DHEA samples were below the limit of detection despite using sensitive assays.

[4] = system: serum concentrations of testosterone (T) and luteinizing hormone (LH); assay: Serum LH and testosterone in male dogs dosed for 1, 3 or 7 days; assay type: in vivo, beagle dogs
Protocol: To further characterize reproductive system effects, adult male healthy beagle dogs were administered sterile water (placebo) or Compound A orally by gavage for 1, 3 or 7 days (Day 0=first day of dosing). Serum was collected from blood for determination of serum concentrations of testosterone (T) and luteinizing hormone (LH).
There were typically one to three spikes of LH and T within the sampling period. In many dogs the LH spikes preceded the T spikes by 20 to 40 minutes.
In dogs receiving Compound A, serum LH and T concentrations were generally near the lower baseline values at the first time point evaluated (1 hour after the first doses), and then typically declined throughout the 4-hour evaluation. This trend toward decreased LH and T concentrations from 60 to 300 minutes postdose was statistically significant (p<0.0001). LH and T remained at low concentrations for the remainder of the study. […] The decline in LH to very low (mean values of 1.5 to 3.8 ng/ml for Compound A versus 10.2 to 14.8 ng/ml for Controls) concentration was more rapid than that seen with T. In dogs receiving Compound A, serum LH and T concentrations at Day 2 were generally lower than those at Day 0. Serum LH concentrations on Day 6 were similar to those on Day 2, while serum T concentrations on Day 6 were generally lower than those on Day 2. By Days 2 and 6, some LH and many T samples were below the limit of detection despite using sensitive assays.

[5] = system: Shionogi mouse mammary carcinoma tumors; assay: Androgen-dependent tumor growth, Shionogi carcinoma in nude mice; assay type: in vivo; conditions: end of 15 days, relative to vehicle control
Protocol: as §1
In the Shionogi experiment, male nu/nu mice (8-9 weeks old, 10 mice/group) were inoculated with Shionogi carcinoma cells and tumors were grown to approximately 150 mm^3 before initiation of Compound A administration. Mice were treated twice daily, i.p. with 20% HPβCD vehicle control, 5 mg/kg Compound A or 15 mg/kg Compound A. Tumor growth was inhibited over 15 days of Compound A treatment relative to vehicle control animals. At the end of 15 days, mean tumor volumes were inhibited by 41% and 69% in the 5 mg/kg and 15 mg/kg groups, respectively.

[6] = assay type: in vivo
Protocol: Compound A was administered as an aqueous solution in sterile water by daily oral gavage to adult healthy beagle dogs.
The dogs received 28 consecutive daily doses at dose levels of 0, 15, 30 or 60 mg/kg. […] Organ weights of male and female reproductive tract tissues were 33-86% lower than that of concurrent controls, and occurred in all dose groups. […] In the epididymides, vacuolation (mild) of epithelium was also present in the mid- and high-dose males. […] This was characterized in the ovaries by a lack of antral follicles, and most follicles that were present were small and contained only small numbers of granulosa cells. Compared to control dogs, the uterine bodies and horns had less myometrial tissue present. Uterine epithelium from dogs receiving Compound A with immature uteri had very little cytoplasm present. The changes in the female reproductive system may be related to atrophy rather than immaturity.

[7] = system: serum LH, T, DHEA, and androstenedione; assay: Lower-dose 7-day study in male beagle dogs; assay type: in vivo
Protocol: Another study was conducted to evaluate the effects of lower doses (0.1, 0.5, 2.5, 12.5 mg/kg) of Compound A administered to male beagle dogs for 7 days.

[8] = males, all dose groups, 28 days oral
[9] = 7 days, 0.1, 0.5, 2.5, 12.5 mg/kg
[10] = 7 days, doses of 2.5 and 12.5 mg/kg

## CO/N=C(\CN(C)C(=O)c1cc(Cl)cc(Cl)c1)C(CCN1CCC(N2CCCC(CC(N)=O)C2=O)CC1)c1ccc(Cl)c(Cl)c1 (stereo not shown) [C]
[1]; 90 mg/kg, male nude mice
  reduction of LHRH-stimulated serum testosterone (statistical significance): statistically significant (p<0.01) reduction

## CN(C/C(=N\O)C(CCN1CCC(N2CCCC(CC(N)=O)C2=O)CC1)c1ccc(Cl)c(Cl)c1)C(=O)c1cc(Cl)cc(Cl)c1 (stereo not shown) [B]
[1]; 90 mg/kg, male nude mice
  reduction of LHRH-stimulated serum testosterone (statistical significance): statistically significant (p<0.01) reduction

## CO/N=C(\CNC(=O)c1cc(Cl)cc(Cl)c1)C(CCN1CCC(N2CCC[C@H](CC(N)=O)C2=O)CC1)c1ccc(Cl)c(Cl)c1 (stereo partly shown) [E]
[1]; 90 mg/kg, male nude mice
  reduction of LHRH-stimulated serum testosterone (statistical significance): statistically significant (p<0.01) reduction

## CNC(=O)C[C@H]1CCCN(C2CCN(CC[C@@H](/C(CN(C)C(=O)c3cc(Cl)cc(Cl)c3)=N/O)c3ccc(Cl)c(Cl)c3)CC2)C1=O [F]
[1]; 90 mg/kg, male nude mice
  reduction of LHRH-stimulated serum testosterone (statistical significance): statistically significant (p<0.01) reduction

## CNC(=O)CC1CCCN(C2CCN(CCC(/C(CN(C)C(=O)c3cc(Cl)cc(Cl)c3)=N/OC)c3ccc(Cl)c(Cl)c3)CC2)C1=O (stereo not shown) [Compound A]
[2]
  tumor growth inhibition: not inhibited
[3]; Day 7, sterile water group 0.37 ng/ml
  group mean serum androstenedione: 0.01 ng/mL
[3]; Day 7, sterile water group 0.88 ng/ml
  group mean serum DHEA: 0.03 ng/mL
[3]; Day 7, sterile water group 1.5 ng/ml
  group mean serum T: 0.05 ng/mL
[3]; Day 7, sterile water group 14.7 ng/ml
  group mean serum LH: 2.4 ng/mL
[3]; Day 21 (14 days postdose)
  serum DHEA group mean and peak mean concentrations versus concurrent controls: not significantly different
  serum LH group mean and peak mean concentrations versus concurrent controls: not significantly different
  serum T group mean and peak mean concentrations versus concurrent controls: not significantly different
  serum androstenedione group mean and peak mean concentrations versus concurrent controls: not significantly different
[3]; twelve dogs in the group, shortly after the sixth dose
  mortality: one dog died
[4]; Day 0, 2 and 6, p≦0.0001
  group mean serum T concentration compared to concurrent controls: significant lower
[4]; Day 0, 2 and 6, p≦0.0005
  group mean serum LH concentration compared to concurrent controls: significant lower
[4]; male beagle dogs, oral gavage
  pulsatile patterns of serum LH and T: lacked the normal pulsatile patterns
[5]; 5 mg/kg twice daily i.p.
  inhibition of mean tumor volume: 41%
[5]; 15 mg/kg twice daily i.p.
  inhibition of mean tumor volume: 69%
[1]; 15 mg/kg oral in 20% HPβCD, LHRH i.m. after 1 hour, bled after an additional hour
  inhibition of serum testosterone: 62%
[1]; 90 mg/kg, male nude mice
  reduction of LHRH-stimulated serum testosterone (statistical significance): statistically significant (p<0.01) reduction
[1]; 300 mg/kg oral in 20% HPβCD, LHRH i.m. after 1 hour, bled after an additional hour
  maximum inhibition of serum testosterone: 83%
[6]; beagle dogs, oral gavage, 28 daily doses, all dose groups (15, 30, 60 mg/kg)
  organ weights of male and female reproductive tract tissues, lower than concurrent controls: 33-86%
[6]; females, at least one dog in each dose group, 28 days oral
  appearance of ovaries and uteri: appeared immature
[6]; males, 28 days oral
  aspermia/hypospermia in the epididymides: observed in all dose groups
[6]; [8]
  atrophy of epididymides (microscopic grade): minimal to moderate
  atrophy of prostate gland (microscopic grade): mild to moderate
  atrophy of seminiferous tubules in the testes (microscopic grade): severe
[6]; mid- and high-dose males, 28 days oral
  vacuolation of epithelium in the epididymides (grade): mild
[7]; [9]
  histopathologic changes in testes and epididymides: degeneration and cellular debris in the seminiferous tubules, interstitial cell vacuolation in the testes, epithelial vacuolation, atrophy, apoptosis, hypospermia, and interstitial edema of the epididymides
  histopathologic changes of the prostate gland: Epithelial apoptosis and atrophy
[7]; [10]
  decrease in serum DHEA (dehydroepiandrosterone): clearly observed
  decrease in serum LH: clearly observed
  decrease in serum T: clearly observed
  decrease in serum androstenedione: clearly observed

## CNC(=O)CC1CCCN(C2CCN(CCC(/C(CNC(=O)c3cc(Cl)cc(Cl)c3)=N/OC)c3ccc(Cl)c(Cl)c3)CC2)C1=O (stereo not shown) [Compound D]
[1]; 90 mg/kg, male nude mice
  reduction of LHRH-stimulated serum testosterone (statistical significance): failed to reach statistical significance
[1]; 90 mg/kg, male nude mice, LHRH-stimulated
  reduction of mean serum testosterone: 19%
